Laboratory results taken from article PMC8279981, “A first-in-human, phase 1 study of the NEDD8 activating enzyme E1 inhibitor TAS4464 in patients with advanced solid tumors” (Investigational New Drugs, 2021).

System: patients with advanced or metastatic solid tumors
Test: Phase 1 study: treatment-related adverse events (NCI CTCAE v4.03)
Format: in vivo, human
Experimental: The highest non-severely toxic dose was derived from a dog toxicology study and was used to calculate a clinical starting dose of 10 mg/m^2, which corresponds to one-sixth of the human-equivalent dose. The maximum tolerated dose (MTD) of TAS4464 was investigated using an accelerated titration design. Initially, the starting TAS4464 dose was 10 mg/m^2 and was followed by an initial accelerated stage (i.e., weekly dosing phase) with 100% dose-step increments (level 1: 10 mg/m^2, level 2: 20 mg/m^2, level 3: 40 mg/m^2, and level 4: 56 mg/m^2). The 100% dose-step increments continued until the occurrence of a grade ≥ 2 drug-related toxicity within Cycle 1; dose-limiting toxicity (DLT) within Cycle 1; the next dose level reaching 60 mg/m^2; or any safety concerns. Thereafter, 40% increments were employed in the standard stage.
In the standard stage, three to six patients were to be enrolled, and the dose was escalated in 40% increments if none of the first three patients experienced a DLT. If one patient experienced a DLT, three additional patients were to be enrolled at the same dose level. If two of three or two of six patients experienced a DLT, the dose escalation was to be ceased. […] Additionally, DLT criteria regarding abnormal liver function and discontinuation criteria for study drug administration were added. The TAS4464 dose level for Day 1 of Cycle 1 was then set to 40 mg/m^2 (level 3).
Therefore, TAS4464 was administered every 7 days by 1-h intravenous infusion (± 10 min) at the dose assigned to each level. Study treatment was repeated every 28 days. The dosing regimens of each cohort are summarized in Supplementary Fig. 1.
Secondary objectives included assessment of AEs, treatment-related AEs, objective response rate (ORR), disease control rate (DCR), progression-free survival (PFS), and PK, pharmacodynamic, and pharmacogenomic (PGx) parameters with TAS4464 administration. The National Cancer Institute Common Terminology Criteria for Adverse Events (NCI CTCAE) v4.03 [17] was used to assess the severity of AEs. […] RECIST v1.1 [16] was used to determine clinical response, and all computed tomography images were assessed by the physician at the study site after completion of the imaging procedure. The ORR was defined as the percentage of patients with the best overall response of complete response (CR) or partial response (PR). The DCR was the percentage of patients with a best overall response of CR, PR, stable disease (SD), or non-CR/non-progressive disease (PD). PFS was defined as the time from the date of enrollment until the date of investigator-assessed radiological disease progression or death due to any cause, whichever occurred first.

[1] = All-grade, weekly dosing Level 1 (10 mg/m^2), n = 1
[2] = All-grade, weekly dosing Level 2 (20 mg/m^2), n = 1
[3] = All-grade, weekly dosing Level 3 (40 mg/m^2), n = 3
[4] = All-grade, weekly dosing Level 4 (56 mg/m^2), n = 5
[5] = All-grade, weekly dosing with lead-in Level 3 (20 → 40 mg/m^2), n = 3
[6] = All-grade, weekly dosing with lead-in Level 4 (20 → 56 mg/m^2), n = 3

CCOc1cccc(F)c1C#Cc1cn([C@@H]2O[C@H](CNS(N)(=O)=O)[C@@H](O)[C@H]2O)c2ncnc(N)c12 [TAS4464]
Grade ≥ 2 abnormal liver function tests (10 or 20 mg/m^2 weekly doses): did not occur
Grade ≥ 2 abnormal liver function tests (40 and 56 mg/m^2 weekly doses): five patients
AEs leading to dose reduction (ALT increased, weekly dosing level 4): one patient each
AEs leading to treatment discontinuation (AST and ALT increased, weekly dosing with lead-in period level 4): one patient each
ALP increased (treatment-related adverse event) (All-grade, Total, N = 16): 7 (43.8) n (%)
ALT increased (treatment-related adverse event) (All-grade, Total, N = 16): 11 (68.8) n (%)
AST increased (treatment-related adverse event) (All-grade, Total, N = 16): 10 (62.5) n (%)
Anemia (treatment-related adverse event) (All-grade, Total, N = 16): 3 (18.8) n (%)
Blood bilirubin increased (treatment-related adverse event) (All-grade, Total, N = 16): 3 (18.8) n (%)
Decreased appetite (treatment-related adverse event) (All-grade, Total, N = 16): 5 (31.3) n (%)
Diarrhea (treatment-related adverse event) (All-grade, Total, N = 16): 3 (18.8) n (%)
Fatigue (treatment-related adverse event) (All-grade, Total, N = 16): 2 (12.5) n (%)
GGT increased (treatment-related adverse event) (All-grade, Total, N = 16): 4 (25.0) n (%)
Hypoalbuminemia (treatment-related adverse event) (All-grade, Total, N = 16): 2 (12.5) n (%)
Malaise (treatment-related adverse event) (All-grade, Total, N = 16): 3 (18.8) n (%)
Nausea (treatment-related adverse event) (All-grade, Total, N = 16): 7 (43.8) n (%)
Neuropathy peripheral (treatment-related adverse event) (All-grade, Total, N = 16): 2 (12.5) n (%)
Pyrexia (treatment-related adverse event) (All-grade, Total, N = 16): 2 (12.5) n (%)
Rash (treatment-related adverse event) (All-grade, Total, N = 16): 3 (18.8) n (%)
Vomiting (treatment-related adverse event) (All-grade, Total, N = 16): 4 (25.0) n (%)
WBC decreased (treatment-related adverse event) (All-grade, Total, N = 16): 3 (18.8) n (%)
ALP increased (treatment-related adverse event) [1]: 0 n (%)
ALT increased (treatment-related adverse event) [1]: 1 (100.0) n (%)
AST increased (treatment-related adverse event) [1]: 1 (100.0) n (%)
Anemia (treatment-related adverse event) [1]: 0 n (%)
Blood bilirubin increased (treatment-related adverse event) [1]: 0 n (%)
Decreased appetite (treatment-related adverse event) [1]: 0 n (%)
Diarrhea (treatment-related adverse event) [1]: 0 n (%)
Fatigue (treatment-related adverse event) [1]: 0 n (%)
GGT increased (treatment-related adverse event) [1]: 0 n (%)
Hypoalbuminemia (treatment-related adverse event) [1]: 1 (100.0) n (%)
Malaise (treatment-related adverse event) [1]: 0 n (%)
Nausea (treatment-related adverse event) [1]: 0 n (%)
Neuropathy peripheral (treatment-related adverse event) [1]: 0 n (%)
Pyrexia (treatment-related adverse event) [1]: 0 n (%)
Rash (treatment-related adverse event) [1]: 0 n (%)
Vomiting (treatment-related adverse event) [1]: 0 n (%)
WBC decreased (treatment-related adverse event) [1]: 0 n (%)
ALP increased (treatment-related adverse event) [2]: 0 n (%)
ALT increased (treatment-related adverse event) [2]: 1 (100.0) n (%)
AST increased (treatment-related adverse event) [2]: 0 n (%)
Anemia (treatment-related adverse event) [2]: 0 n (%)
Blood bilirubin increased (treatment-related adverse event) [2]: 0 n (%)
Decreased appetite (treatment-related adverse event) [2]: 0 n (%)
Diarrhea (treatment-related adverse event) [2]: 0 n (%)
Fatigue (treatment-related adverse event) [2]: 0 n (%)
GGT increased (treatment-related adverse event) [2]: 0 n (%)
Hypoalbuminemia (treatment-related adverse event) [2]: 0 n (%)
Malaise (treatment-related adverse event) [2]: 0 n (%)
Nausea (treatment-related adverse event) [2]: 0 n (%)
Neuropathy peripheral (treatment-related adverse event) [2]: 0 n (%)
Pyrexia (treatment-related adverse event) [2]: 0 n (%)
Rash (treatment-related adverse event) [2]: 0 n (%)
Vomiting (treatment-related adverse event) [2]: 0 n (%)
WBC decreased (treatment-related adverse event) [2]: 0 n (%)
ALP increased (treatment-related adverse event) [3]: 2 (66.7) n (%)
ALT increased (treatment-related adverse event) [3]: 1 (33.3) n (%)
AST increased (treatment-related adverse event) [3]: 1 (33.3) n (%)
Anemia (treatment-related adverse event) [3]: 0 n (%)
Blood bilirubin increased (treatment-related adverse event) [3]: 1 (33.3) n (%)
Decreased appetite (treatment-related adverse event) [3]: 2 (66.7) n (%)
Diarrhea (treatment-related adverse event) [3]: 1 (33.3) n (%)
Fatigue (treatment-related adverse event) [3]: 1 (33.3) n (%)
GGT increased (treatment-related adverse event) [3]: 1 (33.3) n (%)
Hypoalbuminemia (treatment-related adverse event) [3]: 1 (33.3) n (%)
Malaise (treatment-related adverse event) [3]: 1 (33.3) n (%)
Nausea (treatment-related adverse event) [3]: 2 (66.7) n (%)
Neuropathy peripheral (treatment-related adverse event) [3]: 0 n (%)
Pyrexia (treatment-related adverse event) [3]: 0 n (%)
Rash (treatment-related adverse event) [3]: 0 n (%)
Vomiting (treatment-related adverse event) [3]: 1 (33.3) n (%)
WBC decreased (treatment-related adverse event) [3]: 1 (33.3) n (%)
ALP increased (treatment-related adverse event) [4]: 4 (80.0) n (%)
ALT increased (treatment-related adverse event) [4]: 5 (100.0) n (%)
AST increased (treatment-related adverse event) [4]: 4 (80.0) n (%)
Anemia (treatment-related adverse event) [4]: 1 (20.0) n (%)
Blood bilirubin increased (treatment-related adverse event) [4]: 2 (40.0) n (%)
Decreased appetite (treatment-related adverse event) [4]: 2 (40.0) n (%)
Diarrhea (treatment-related adverse event) [4]: 2 (40.0) n (%)
Fatigue (treatment-related adverse event) [4]: 1 (20.0) n (%)
GGT increased (treatment-related adverse event) [4]: 3 (60.0) n (%)
Hypoalbuminemia (treatment-related adverse event) [4]: 0 n (%)
Malaise (treatment-related adverse event) [4]: 2 (40.0) n (%)
Nausea (treatment-related adverse event) [4]: 4 (80.0) n (%)
Neuropathy peripheral (treatment-related adverse event) [4]: 2 (40.0) n (%)
Pyrexia (treatment-related adverse event) [4]: 0 n (%)
Rash (treatment-related adverse event) [4]: 2 (40.0) n (%)
Vomiting (treatment-related adverse event) [4]: 2 (40.0) n (%)
WBC decreased (treatment-related adverse event) [4]: 1 (20.0) n (%)
ALP increased (treatment-related adverse event) [5]: 0 n (%)
ALT increased (treatment-related adverse event) [5]: 1 (33.3) n (%)
AST increased (treatment-related adverse event) [5]: 2 (66.7) n (%)
Anemia (treatment-related adverse event) [5]: 1 (33.3) n (%)
Blood bilirubin increased (treatment-related adverse event) [5]: 0 n (%)
Decreased appetite (treatment-related adverse event) [5]: 1 (33.3) n (%)
Diarrhea (treatment-related adverse event) [5]: 0 n (%)
Fatigue (treatment-related adverse event) [5]: 0 n (%)
GGT increased (treatment-related adverse event) [5]: 0 n (%)
Hypoalbuminemia (treatment-related adverse event) [5]: 0 n (%)
Malaise (treatment-related adverse event) [5]: 0 n (%)
Nausea (treatment-related adverse event) [5]: 1 (33.3) n (%)
Neuropathy peripheral (treatment-related adverse event) [5]: 0 n (%)
Pyrexia (treatment-related adverse event) [5]: 2 (66.7) n (%)
Rash (treatment-related adverse event) [5]: 0 n (%)
Vomiting (treatment-related adverse event) [5]: 1 (33.3) n (%)
WBC decreased (treatment-related adverse event) [5]: 0 n (%)
ALP increased (treatment-related adverse event) [6]: 1 (33.3) n (%)
ALT increased (treatment-related adverse event) [6]: 2 (66.7) n (%)
AST increased (treatment-related adverse event) [6]: 2 (66.7) n (%)
Anemia (treatment-related adverse event) [6]: 1 (33.3) n (%)
Blood bilirubin increased (treatment-related adverse event) [6]: 0 n (%)
Decreased appetite (treatment-related adverse event) [6]: 0 n (%)
Diarrhea (treatment-related adverse event) [6]: 0 n (%)
Fatigue (treatment-related adverse event) [6]: 0 n (%)
GGT increased (treatment-related adverse event) [6]: 0 n (%)
Hypoalbuminemia (treatment-related adverse event) [6]: 0 n (%)
Malaise (treatment-related adverse event) [6]: 0 n (%)
Nausea (treatment-related adverse event) [6]: 0 n (%)
Neuropathy peripheral (treatment-related adverse event) [6]: 0 n (%)
Pyrexia (treatment-related adverse event) [6]: 0 n (%)
Rash (treatment-related adverse event) [6]: 1 (33.3) n (%)
Vomiting (treatment-related adverse event) [6]: 0 n (%)
WBC decreased (treatment-related adverse event) [6]: 1 (33.3) n (%)
ALP increased (treatment-related adverse event) (Grade ≥ 3, Total, N = 16): 1 (6.3) n (%)
ALT increased (treatment-related adverse event) (Grade ≥ 3, Total, N = 16): 5 (31.3) n (%)
AST increased (treatment-related adverse event) (Grade ≥ 3, Total, N = 16): 5 (31.3) n (%)
